Data published in patent publication US10363288B2, “Insulin mimotopes and methods of using the same” (THE REGENTS OF THE UNIVERSITY OF COLORADO, a body corporate, priority 2015, dated 2019).

Key:
[1] = tested on: CD4 T cells; assay: CFSE proliferation assay of CD4 T cells from PBMCs of established T1D subjects; assay type: cell-based, human
[2] = tested on: NOD mouse; details: administered at low doses; cited from earlier work

SHLVEALYLVCGEEG [B: 9-23 B22E, B:9-23 mimotope; B22 arginine to glutamic acid]
proliferation of CD4 T cells (CFSE dilution) [1]: proliferation of CD4 T cells much more than the wild type peptide
inducing tolerance and preventing diabetes onset [2]: completely preventing diabetes onset
